Data as given in paper PMC11940194, “Synthesis, Antiproliferative Activity, and ADME Profiling of Novel Racemic and Optically Pure Aryl-Substituted Purines and Purine Bioisosteres” (Biomolecules, 2025).

Assays:
[1] = test system: breast adenocarcinoma (MCF7) cells; test: Antiproliferative MTT assay, MCF-7; assay type: cell-based, human; settings: for IC50: Homo sapiens, MCF7, 72 h incubation, MTT, mean ± SD; for SI (MCF-7): SI = [IC50 HFF]/[IC50 MCF-7]
Method: (§1) The human ATCC tumor cell lines breast adenocarcinoma (MCF7), colorectal carcinoma (HT-29), pancreatic ductal adenocarcinoma (CFPAC-1), hepatocellular carcinoma (HepG2), and normal skin fibroblasts (HFF) derived from ATCC (American Type Culture Collection) were cultured in Dulbecco’s Modified Eagle Medium (DMEM) or Minimum Essential Medium (MEM) supplemented with 10% fetal bovine serum (FBS), 2 mM L-glutamine, 100 U/mL penicillin, and 100 µg/mL streptomycin (Lonza, Basel, Switzerland) in a humidified atmosphere with 5% CO2 at 37 °C. For the experiment, carcinoma cell lines and normal human cell lines were seeded in 96-well microtiter plates at a density of 3000 cells per well and 5000 cells per well, respectively, depending on the doubling time of the specific cell line. The test substances were then added at fivefold, tenfold dilutions (0.01 to 100 µM), freshly prepared in the growth medium on the day of testing, and incubated for a further 72 h. After 72 h of incubation, the growth rate of the cells was determined using the MTT assay according to the manufacturer’s guidelines. […] The IC50 values were calculated from the dose–response curves using linear regression analysis. The experiment was performed in tetraplicates in two individual experiments.
(§2) Newly synthesized compounds were evaluated for their cytotoxic activity in vitro against four human cancer cell lines, including human breast adenocarcinoma (MCF-7), ductal pancreatic adenocarcinoma (CFPAC-1), colorectal carcinoma (HT-29), and hepatocellular carcinoma (HepG2), as well as on non-cancerous skin fibroblasts (HFF-1), to check for non-specific toxicity. Furthermore, 5-Fluorouracil (5-FU) was used as a reference drug. The results are expressed as 50% inhibitory concentration (IC50) values and are listed in Table 2, Table 3, Table 4 and Table 5.

[2] = test system: pancreatic ductal adenocarcinoma (CFPAC-1) cells; test: Antiproliferative MTT assay, CFPAC-1; assay type: cell-based, human; settings: for IC50: Homo sapiens, CFPAC-1, 72 h, 72 h incubation, MTT, mean ± SD; for SI (CFPAC-1): SI = [IC50 HFF]/[IC50 CFPAC-1]
Method: as §1, §2

[3] = test system: colorectal carcinoma (HT-29) cells; test: Antiproliferative MTT assay, HT-29; assay type: cell-based, human; settings: for IC50: Homo sapiens, HT-29, 72 h, 72 h incubation, MTT, mean ± SD; for SI (HT-29): SI = [IC50 HFF]/[IC50 HT-29]
Method: as §1, §2

[4] = test system: hepatocellular carcinoma (HepG2) cells; test: Antiproliferative MTT assay, HepG2; assay type: cell-based, human; settings: for IC50: Homo sapiens, HepG2, 72 h, 72 h incubation, MTT, mean ± SD; for SI (HepG2): SI = [IC50 HFF]/[IC50 HepG2]
Method: as §1, §2

[5] = test system: normal skin fibroblasts (HFF-1); test: Cytotoxicity MTT assay, normal skin fibroblasts; assay type: cell-based, human; settings: Homo sapiens, HFF-1, 72 h, 72 h incubation, mean ± SD
Method: as §1, §2

[6] = test system: MDCKII-MDR1 cells (P-glycoprotein); test: MDCKII-MDR1 permeability assay; assay type: in vitro ADME, canine cells with over-expressed human MDR1 gene; settings: for Permeability: permeability class
Method: (§3) MDCKII-hMDR1 cells were obtained from Solvo Biotechnology, Hungary. DMEM, fetal bovine serum, Glutamax-100, Antibiotic/Antimycotic, DMSO, Dulbecco’s phosphate-buffered saline, and MEM Non-essential amino acids were purchased from Sigma (St. Louis, MO, USA). Bi-directional permeability and P-glycoprotein substrate assessments were carried out in Madin-Darby canine epithelial cells with the over-expressed human MDR1 gene (MDCKII-MDR1), coding for P-glycoprotein. Experimental procedures, as well as cell culture conditions, were the same as previously described. Briefly, compounds (10 µM, 1% DMSO v/v) in duplicate were incubated at 37 °C for 60 min with cell monolayer on 24-well Millicell inserts (Millipore, Burlington, MA, USA) with and without the P-glycoprotein inhibitor Elacridar (2 µM, International Laboratory, San Francisco, CA, USA). The inhibition of P-glycoprotein was verified by amprenavir (Moravek Biochemicals Inc, Brea, CA, USA) and monolayer integrity using Lucifer yellow (Sigma, St. Louis, MO, USA). LC-MS/MS measured compound concentrations and Lucifer yellow was measured on an Infinite F500 (Tecan, Männedorf, CH, Switzerland) using excitation of 485 nm and emission of 530 nm.
(§4) All samples were quantified using tandem mass spectrometry coupled to liquid chromatography. Samples were analyzed on a Sciex API4000 Triple Quadrupole Mass Spectrometer (Sciex, Division of MDS Inc., Toronto, Canada) coupled to a Shimadzu Nexera X2 UHPLC frontend (Kyoto, Japan). Samples were injected onto a UHPLC column (HALO2 C18, 2.1 × 20 mm, 2 µm or Luna Omega 1.6 µm Polar C18 100A, 30 × 2.1 mm) and eluted with a gradient at 50 °C. The mobile phase was composed of acetonitrile/water mixture (9/1, with 0.1% formic acid) and 0.1% formic acid in deionized water. The flow rate was 0.7 mL/min under gradient conditions, leading to a total run time of 1.5–2 min. A positive ion mode with turbo spray, an ion source temperature of 550 °C, and a dwell time of 150 ms were utilized for mass spectrometric detection. Quantitation was performed using multiple reaction monitoring (MRM) at the specific transitions for each compound.

[7] = test system: P-glycoprotein (human MDR1); test: MDCKII-MDR1 permeability assay; assay type: in vitro ADME, canine cells with over-expressed human MDR1 gene; settings: dog, MDCK-MDR1; for Papp A→B at 60 min, 10 µM / Papp B→A at 60 min, 10 µM: 37 °C; for efflux ratio at 60 min, 10 µM: <2 no efflux, >2 active efflux; for Papp at 60 min, 10 µM: permeability class
Method: as §3, §4

[8] = Metabolic stability in mouse liver microsomes; assay type: in vitro ADME; settings: for Clearance Class.: mouse liver microsomes; for Clearance Values (CL): predicted in vivo hepatic clearance from mouse liver microsome t1/2, 1 µM compound
Text: Mouse liver microsomes were obtained from Corning Life Sciences (Corning, NY, USA). DMSO, nicotinamide adenine dinucleotide phosphate (NADP), glucose-6-phosphate, glucose-6-phosphate dehydrogenase, magnesium chloride, propranolol, caffeine, diclofenac, and phosphate-buffered saline (PBS) were purchased from Sigma (St. Louis, MO, USA). Acetonitrile (ACN) and methanol (MeOH) were obtained from Merck (Darmstadt, Germany). Testosterone was purchased from Steraloids (Newport, RI, USA). Metabolic stability was assessed in mouse liver microsomes. Compounds (final concentration of 1 µM, 0.03% DMSO v/v) were incubated in duplicate in phosphate buffer (50 mM, pH 7.4) at 37 °C together with mouse liver microsomes in the absence and presence of the NADPH cofactor (0.5 mM nicotinamide adenine dinucleotide phosphate, 5 mM glucose-6-phosphate, 1.5 U/mL glucose-6-phosphate dehydrogenase, and 0.5 mM magnesium chloride). Incubation and sampling were performed on a Freedom EVO 200 (Tecan, Männedorf, CH, Switzerland) at […], 10, 20, 30, 45, and 60 min. The reaction was quenched using 3 volumes of a mixture of ACN/MeOH (2:1) containing internal standard (diclofenac), centrifuged, and the supernatants were analyzed using LC-MS/MS. The metabolic activity of the microsomes was verified via simultaneous analysis of several controls including testosterone, propranolol, and caffeine. The in vitro half-life (t1/2) was calculated using GraphPad Prism (v9.0 software) non-linear regression of % of parent compound remaining versus time. In vitro clearance, expressed as µL/min/mg, was estimated from the in vitro half-life (t1/2) and normalized for the protein amount in the incubation mixture, assuming 52.5 mg of protein per gram of liver and using constant values for mouse liver weight/body weight [87.5 g/kg] and mouse liver blood flow (LBF) [131 mL/min/kg].
as §4

SMILES	IC50 [1] [µM]	IC50 [2] [µM]	SI (CFPAC-1) [2]	IC50 [3] [µM]	IC50 [4] [µM]	IC50 [5] [µM]	Permeability [6]	Papp A→B at 60 min, 10 µM [7] [×10⁻⁶ cm/s]	Papp B→A at 60 min, 10 µM [7] [×10⁻⁶ cm/s]	efflux ratio at 60 min, 10 µM [7]	Clearance Class. [8]	Clearance Values (CL) [8] [%]	SI (HT-29) [3]	SI (HepG2) [4]	Papp at 60 min, 10 µM [7] [×10⁻⁶ cm/s]	Efflux Ratio ([6]; <2 no efflux, >2 active efflux)	SI (MCF-7) [1]
OC(Cn1cc(Cn2cnc3ccccc32)nn1)c1ccc(Br)cc1 (stereo not drawn) [Compound 34b, 1-((1-(2-Hydroxy-2-(4-bromophenyl)ethyl)-1H-1,2,3-triazol-4-yl)methyl)-1H-benzimidazole]	39 ± 10.1	8 ± 3.2	4.0	70 ± 14.5	64 ± 19.5	32 ± 14.1	MODERATE	4.3	69.4	17.2	MODERATE (30–70% moderate)	48	–	–	–	–	–
OCC(c1ccc(Br)cc1)n1cc(Cn2ccc3ccccc32)nn1 (stereo not drawn) [Compound 29a, 1-((1-(2-Hydroxy-1-(4-bromophenyl)ethyl)-1H-1,2,3-triazol-4-yl)methyl)-1H-indole]	24 ± 1	39 ± 2.8	>2.6	34 ± 0.3	29 ± 0.8	> 100	HIGH	10	25.5	2.6	MODERATE (30–70% moderate)	43	–	–	–	–	–
OCC(c1ccc(Br)cc1)n1cc(Cn2cnc3c(Cl)ncnc32)nn1 (stereo not drawn) [Compound 39a, 6-Chloro-9-((1-(2-hydroxy-1-(4-bromophenyl)ethyl)-1H-1,2,3-triazol-4-yl)methyl)-9H-purine]	14 ± 4.8	46 ± 3.8	–	31 ± 2.6	16 ± 5.6	14 ± 4.7	–	–	58	68.1	–	–	0.5	0.9	≤ 2	–	–
OC(Cn1cc(Cn2cnc3c(Cl)ncnc32)nn1)c1ccc(Br)cc1 (stereo not drawn) [Compound 39b, 6-Chloro-9-((1-(2-hydroxy-2-(4-bromophenyl)ethyl)-1H-1,2,3-triazol-4-yl)methyl)-9H-purine]	21 ± 14	15 ± 1	–	50 ± 0.6	44 ± 8.1	30 ± 2.7	MODERATE	3.1	69.6	22.5	–	–	0.6	0.7	–	–	–
OCC(c1ccc(Br)cc1)n1cc(Cn2cnc3ccccc32)nn1 (stereo not drawn) [Compound 34a, 1-((1-(2-Hydroxy-1-(4-bromophenyl)ethyl)-1H-1,2,3-triazol-4-yl)methyl)-1H-benzimidazole]	22 ± 5.1	15 ± 8.9	2.8	39 ± 4.3	35 ± 14.2	42 ± 8.3	–	≤ 2	65.7	32.8	LOW (<30% low)	–	–	–	≤ 2	–	–
OC(Cn1cc(Cn2cnc3c(Cl)ncnc32)nn1)c1ccc(C(F)(F)F)cc1 (stereo not drawn) [Compound 40b, 6-Chloro-9-((1-(2-hydroxy-2-(4-(trifluoromethyl)phenyl)ethyl)-1H-1,2,3-triazol-4-yl)methyl)-9H-purine]	28 ± 6.7	25 ± 6.4	–	14 ± 8.1	15 ± 9	8 ± 4.8	–	–	–	–	low clearance	–	0.6	0.5	–	higher efflux values	–
OCC(c1ccc(Br)cc1)n1cc(Cn2cnc3c(Cl)nccc32)nn1 (stereo not drawn) [Compound 49a, 4-Chloro-1-((1-(2-hydroxy-1-(4-bromophenyl)ethyl)-1H-1,2,3-triazol-4-yl)methyl)-1H-imidazo[4,5-c]pyridine]	77 ± 3	77 ± 0.5	–	77 ± 1.1	66 ± 22.8	90 ± 4.04	–	≤ 2	41.1	41.4	LOW (<30% low)	–	–	1.4	≤ 2	–	–
O[C@@H](Cn1cc(Cn2ccc3c(Cl)ncnc32)nn1)c1ccc(Cl)cc1 [Compound (R)-43b, (R)-4-Chloro-7-((1-(2-hydroxy-2-(4-chlorophenyl)ethyl)-1H-1,2,3-triazol-4-yl)methyl)-7H-pyrrolo[2,3-d]pyrimidine]	35 ± 1.9	32 ± 16.1	0.6	48 ± 4.8	26 ± 8.2	20 ± 6.5	–	–	–	–	–	–	–	–	–	–	0.6
O[C@@H](Cn1cc(Cn2ccc3c(Cl)ncnc32)nn1)c1ccc(F)cc1 [Compound (R)-42b, (R)-4-Chloro-7-((1-(2-hydroxy-2-(4-fluorophenyl)ethyl)-1H-1,2,3-triazol-4-yl)methyl)-7H-pyrrolo[2,3-d]pyrimidine]	60 ± 1.2	20 ± 0.9	1.2	27 ± 1.4	32 ± 6.04	24 ± 2.4	–	–	–	–	–	–	–	–	–	–	0.4
